Our source for the IC50 values is ChEMBL document CHEMBL1135131, “Nicotinanilides as inhibitors of neutrophil chemotaxis” (Bioorg Med Chem Lett, 2002).

Bounds are passed on as bounds.

In experiment [1] the target is T1, Interleukin-8 receptors, CXCR1/CXCR2 (Homo sapiens, UniProt P25025+P25024).
T1 sequence (P25025 whole entry): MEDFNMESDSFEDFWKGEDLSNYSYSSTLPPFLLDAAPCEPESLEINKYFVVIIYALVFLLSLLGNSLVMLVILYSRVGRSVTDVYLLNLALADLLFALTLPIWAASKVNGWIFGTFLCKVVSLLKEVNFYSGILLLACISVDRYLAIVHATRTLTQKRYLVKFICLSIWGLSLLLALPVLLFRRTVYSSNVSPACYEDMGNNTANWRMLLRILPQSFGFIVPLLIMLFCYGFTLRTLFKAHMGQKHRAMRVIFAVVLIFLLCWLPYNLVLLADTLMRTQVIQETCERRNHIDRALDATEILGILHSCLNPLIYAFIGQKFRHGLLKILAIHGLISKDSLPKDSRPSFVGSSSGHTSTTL
T1 sequence (P25024 whole entry): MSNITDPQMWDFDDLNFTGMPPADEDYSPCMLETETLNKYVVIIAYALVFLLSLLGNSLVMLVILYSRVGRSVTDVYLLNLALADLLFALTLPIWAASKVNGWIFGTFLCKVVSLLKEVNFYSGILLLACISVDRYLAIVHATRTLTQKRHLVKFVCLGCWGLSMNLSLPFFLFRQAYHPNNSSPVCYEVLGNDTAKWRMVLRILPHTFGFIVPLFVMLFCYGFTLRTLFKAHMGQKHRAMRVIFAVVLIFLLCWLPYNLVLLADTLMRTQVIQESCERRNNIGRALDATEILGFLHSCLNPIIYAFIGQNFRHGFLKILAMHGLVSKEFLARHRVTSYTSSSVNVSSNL
As to the kind of experiment: Inhibition against GRO-alpha driven human neutrophil chemotaxis. In kind it is functional.

The nature of experiment [2]: Inhibition against formyl-methionyl-leucyl (FMLP) phenylalanine driven human neutrophil chemotaxis. The class given is functional.
Experiment [3] has as its target T2, C-X-C chemokine receptor type 2 (Homo sapiens, UniProt P25025).
T2 sequence (P25025 whole entry): T1 sequence (P25025 whole entry)
As to the kind of experiment: Displacement of [125I]IL-8 from CHO cell membranes expressing human […] chemokine receptor 2 (CXCR2 filter mat binding assay).

Experiment [4] addresses T2, C-X-C chemokine receptor type 2. As to the kind of experiment: Displacement of [125I]IL-8 from CHO cell membranes expressing human […] chemokine receptor 2. (In general: Loss of bound radioactivity is the signal in a displacement assay; it reports binding, not function.)

In general, IC50 refers to the concentration at which inhibition is half-maximal. In turn, `O=C(O)CCSc1ccc(C(=O)Nc2ccc(F)cc2)cn1` displayed an IC50 in experiment [1] greater than 20 µM.

For the molecule `O=C(COc1ccc(C(=O)Nc2ccc(F)cc2)cn1)Nc1cccnc1`, the results for the IC50 in experiment [1] and in experiment [2] were 0.22 µM and greater than 40 µM, respectively.

Molecule `COC(=O)COc1ccc(NC(=O)c2ccc(F)cc2)cn1` registered an IC50 in experiment [1] of 0.36 µM.

For the molecule `O=C(COc1ccc(C(=O)Nc2ccc(F)cc2)cn1)OC1CCCCC1`, the IC50 was 0.22 µM in experiment [1] and greater than 40 µM in experiment [2].

As for `COC(=O)CCSc1ccc(C(=O)Nc2ccc(F)cc2)cn1`, the figures for the IC50 in experiment [1] and in experiment [2] were 0.76 µM and greater than 40 µM, respectively.

Regarding `O=C(COc1ccc(C(=O)Nc2ccc(F)cc2)cn1)OCc1ccccc1`, the half-inhibitory concentration (IC50) in experiment [1] is 0.094 µM; in experiment [2], greater than 40 µM.

Take `O=C(COc1ccc(C(=O)Nc2ccc(F)cc2)cn1)NC1CCCC1`: in experiment [1], the IC50 was greater than 20 µM.

Turning to `O=C(CSc1ccc(C(=O)Nc2ccc(F)cc2)cn1)OCc1cccc(F)c1`, in experiment [1], the IC50 was 0.043 µM.

Take `COC(=O)COc1ccc(C(=O)Nc2ccc(F)cc2)cn1`: the IC50 was 0.11 µM in experiment [1] and greater than 40 µM in experiment [2].

Molecule `CNC(=O)COc1ccc(C(=O)Nc2ccc(F)cc2)cn1` registered an IC50 in experiment [1] greater than 20 µM.

For the molecule `CC(C)CCOC(=O)COc1ccc(C(=O)Nc2ccc(F)cc2)cn1`, the half-maximal inhibitory concentration (IC50) in experiment [1] was 0.2 µM; in experiment [2] it was greater than 40 µM.

Regarding `CCCOC(=O)CSc1ccc(C(=O)Nc2ccc(F)cc2)cn1`, the 50% inhibitory concentration (IC50) was 0.046 µM in experiment [1] and greater than 40 µM in experiment [2].

For `O=C(COc1ccc(C(=O)Nc2ccc(F)cc2)cn1)OCc1cccc(F)c1`, the IC50 in experiment [1] is 0.05 µM; in experiment [2], greater than 40 µM.

Take `CCOC(=O)COc1ccc(C(=O)Nc2ccc(F)cc2)cn1`: the IC50 is 0.16 µM in experiment [1] and greater than 40 µM in experiment [2].

Consider `O=C(O)CSc1ccc(C(=O)Nc2ccc(F)cc2)cn1`, for which the IC50 in experiment [3] is 1200 nM; in experiment [1], greater than 20 µM.

In the case of `O=C(COc1ccc(C(=O)Nc2ccc(F)cc2)cn1)Nc1ccccc1`, the half-maximal inhibitory concentration (IC50) in experiment [1] is 1 µM; in experiment [2] it was greater than 40 µM.

For the molecule `O=C(O)CCCSc1ccc(C(=O)Nc2ccc(F)cc2)cn1`, the IC50 in experiment [1] was 5.1 µM.

With `O=C(COc1ccc(C(=O)Nc2ccc(F)cc2)cn1)Oc1ccccc1`, in experiment [1], the half-maximal inhibitory concentration (IC50) turned out to be 0.41 µM.

For the molecule `CN(C(=O)COc1ccc(C(=O)Nc2ccc(F)cc2)cn1)c1ccccc1`, the 50% inhibitory concentration (IC50) in experiment [1] was 12.5 µM; in experiment [2] it was greater than 40 µM.

For the molecule `O=C(COc1ccc(C(=O)Nc2ccc(F)cc2)cn1)Nc1cccc(Br)c1`, the IC50 in experiment [1] was 2.7 µM; in experiment [2], greater than 40 µM.

For the molecule `O=C(COc1ccc(C(=O)Nc2ccc(F)cc2)cn1)OCCCCC1CCCCC1`, the half-inhibitory concentration (IC50) was 0.68 µM in experiment [1] and greater than 40 µM in experiment [2].

As to `COC(=O)CSc1ccc(C(=O)Nc2ccc(F)cc2)cn1`, the values for the 50% inhibitory concentration (IC50) in experiment [4] and in experiment [1] were 32 nM and 0.042 µM, respectively.

In the case of `O=C(CSc1ccc(C(=O)Nc2ccc(F)cc2)cn1)OCc1ccc(Br)cc1`, in experiment [1], the concentration for half-maximal inhibition (IC50) amounted to 0.083 µM.
